Measured values: patent US9163032B2, “Esters of DCPLA and methods of treatment using the same” (Blanchette Rockefeller Neurosciences Institute, priority 2011, dated 2015)
Where two headings read alike, the source gives them in different places.

Experiments:
PKC-ε [1] = molecular target: T1, PKC-ε (Homo sapiens, UniProt Q02156); assay: PKC activation assay with purified PKC-ε isozyme (32P-phosphoprotein formation); type: biochemical; conditions: for Emax: % of control of PKCε at maximum; for Specificity ε/α: Activation of PKC-ε ÷ activation or inhibition of PKCα at 3xEC50; for concentration of maximal activation: FIG. 2, FIG. 4; for EC50: lowest concentration that activates by 50% of maximum activation; for PKC-ε activation at its peak: maximum, FIG. 1, 2, 4
T1 sequence (Q02156 1-737): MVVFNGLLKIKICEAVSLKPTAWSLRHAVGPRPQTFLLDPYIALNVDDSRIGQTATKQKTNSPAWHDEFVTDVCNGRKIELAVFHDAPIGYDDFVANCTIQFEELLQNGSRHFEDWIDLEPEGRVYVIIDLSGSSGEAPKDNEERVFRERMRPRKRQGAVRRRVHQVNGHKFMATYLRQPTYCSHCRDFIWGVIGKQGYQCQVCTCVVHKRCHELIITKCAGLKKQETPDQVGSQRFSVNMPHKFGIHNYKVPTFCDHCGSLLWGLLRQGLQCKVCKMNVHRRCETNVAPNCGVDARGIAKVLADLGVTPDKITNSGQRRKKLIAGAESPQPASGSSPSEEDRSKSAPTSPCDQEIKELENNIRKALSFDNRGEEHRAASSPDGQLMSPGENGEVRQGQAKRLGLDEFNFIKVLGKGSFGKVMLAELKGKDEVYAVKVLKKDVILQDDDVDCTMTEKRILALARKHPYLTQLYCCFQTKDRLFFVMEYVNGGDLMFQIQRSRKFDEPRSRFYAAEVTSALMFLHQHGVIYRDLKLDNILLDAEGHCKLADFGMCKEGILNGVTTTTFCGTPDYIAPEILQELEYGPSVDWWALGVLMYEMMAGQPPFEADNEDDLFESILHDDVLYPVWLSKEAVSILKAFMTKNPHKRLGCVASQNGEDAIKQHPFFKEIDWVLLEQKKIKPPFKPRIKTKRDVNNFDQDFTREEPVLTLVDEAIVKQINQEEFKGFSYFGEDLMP
Method: (§1) For measurement of PKC activation by DCPLA-ME, activation of recombinant PKC-α, PKC-ε, and PKC-δ was evaluated. DCPLA-ME induced activation was measured in the absence of diacylglycerol (DAG) and phosphatidylserine (PS) as described earlier. See Nelson, T. J. et al., J. Biol. Chem., 2009, 284: 34514-34521, and Kanno, T. et al., J. Cell Physiol., 2009, 221: 183-188. Individual enzymes were incubated for 15 min at 37° C. in the presence of 10 μM histones, 4.89 mM CaCl2, 10 mM MgCl2, 20 mM HEPES (pH 7.4), 0.8 mM EDTA, 4 mM EGTA, 4% glycerol, 8 μg/ml aprotinin, 8 μg/ml leupeptin, 2 mM benzamidine, and 0.5 μCi of [γ-^32P]ATP. Purified PKC-α, PKC-ε and PKC-δ were preincubated with DCPLA-ME for 5 min at room temperature. [^32P]-Phosphoprotein formation was measured by adsorption onto phosphocellulose.
(§2) To measure PKC, 10 μl of cell homogenate or purified PKC isozyme was incubated for 15 min at 37° C. in the presence of 10 μM histones, 4.89 mM CaCl2, 1.2 μg/μl phosphatidyl-L-serine, 0.18 μg/μl 1,2-dioctanoyl-sn-glycerol, 10 mM MgCl2, 20 mM HEPES (pH 7.4), 0.8 mM EDTA, 4 mM EGTA, 4% glycerol, 8 μg/ml aprotinin, 8 μg/ml leupeptin, and 2 mM benzamidine. [γ32P]ATP (0.5 μCi) was added and 32P-phosphoprotein formation was measured by adsorption onto phosphocellulose as described previously. See Nelson et al., J. Neurochemistry, 1995, 65: 2350-2357.
(§3) PKC activity of each compound was measured in the absence of diacylglycerol and phosphatidyl-L-serine and PKC-δ and PKC-ε were measured in the absence of added EGTA and CaCl2, as described by Kanno et al., J. Lipid Res., 2006, 47: 1146-1156. Low concentrations of Ca^2+ are needed because high Ca^2+ interacts with the PKC phosphatidylserine binding site and prevents activation. […] To determine their PKC isozyme specificity, the compounds were pre-incubated with purified isoforms of PKC for five minutes and the PKC activity was measured radiometrically.
(§4) The activation and PKC isozyme specificity of DCPLA-ethyl ester was measured following the procedures in Example 1(B) and (C), except that 9 ng of the purified isozyme was used and it was pre-incubated for 5 minutes at room temperature (FIG. 3). PKC-ε activation by DCPLA-tert-butyl ester and DCPLA-retinyl ester was measured in the same manner as DCPLA-ethyl ester (FIG. 3).
The EC50 values, PKC specificity, and activation for a select number of DCPLA esters was determined (see Table 1). EC50 values were determined by measuring the lowest concentration that activates by 50% of maximum activation. […] The specificity and activation of PKC by the various esters of DCPLA were determined from the measurements of activation of PKC isozymes.

PKC-α = PKC-α (Homo sapiens, UniProt P17252); assay: PKC activation assay with purified PKC-α isozyme; type: biochemical
Method: as §1
as §2, with “See Nelson et al., J. Neurochemistry, 1995, 65: 2350-2357.” left out
as §3, with “1146-1156.” for “1146-1156. Low concentrations of Ca^2+ are needed because high Ca^2+ interacts with the PKC phosphatidylserine binding site and prevents activation.”
as §4

PKC-δ = PKC-δ (Homo sapiens, UniProt Q05655); assay: PKC activation assay with purified PKC-δ isozyme; type: biochemical
Chain of PKC-δ (Q05655 whole entry): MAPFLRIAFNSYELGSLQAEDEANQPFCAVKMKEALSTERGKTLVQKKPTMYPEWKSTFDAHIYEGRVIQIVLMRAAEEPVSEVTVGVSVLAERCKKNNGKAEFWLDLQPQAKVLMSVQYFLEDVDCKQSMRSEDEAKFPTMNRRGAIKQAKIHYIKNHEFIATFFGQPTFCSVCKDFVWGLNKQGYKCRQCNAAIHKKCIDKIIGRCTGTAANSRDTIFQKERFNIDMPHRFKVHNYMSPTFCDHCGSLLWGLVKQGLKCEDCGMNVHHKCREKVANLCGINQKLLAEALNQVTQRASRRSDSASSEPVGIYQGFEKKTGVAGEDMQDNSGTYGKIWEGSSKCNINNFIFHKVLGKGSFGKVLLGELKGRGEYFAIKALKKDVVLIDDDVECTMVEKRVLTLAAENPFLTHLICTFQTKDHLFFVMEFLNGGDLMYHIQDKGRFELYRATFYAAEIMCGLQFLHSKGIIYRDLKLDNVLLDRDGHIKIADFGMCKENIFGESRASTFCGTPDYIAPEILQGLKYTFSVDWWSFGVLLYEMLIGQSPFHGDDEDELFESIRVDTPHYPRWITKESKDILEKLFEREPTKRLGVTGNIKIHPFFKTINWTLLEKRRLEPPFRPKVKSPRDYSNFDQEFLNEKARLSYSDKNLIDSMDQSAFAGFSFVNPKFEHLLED
Method: as §1
as §2, with “2350-2357. […]” for “2350-2357.”

PKC-ε [2] = assay: PKC-ε level in primary neurons (immunofluorescence, Western Blot); type: cell-based, rat; conditions: 5 μM inhibitor, ASPD + DCPLA-ME
Method: Cells were grown in two chambered slides (Nunc, USA) at low density. For immunofluorescence staining, the cells were washed with PBS (pH 7.4) and fixed with 4% paraformaldehyde for 4 min. Following fixation, the cells were blocked and permeabilized with 5% serum and 0.3% Triton X-100 in 1×PBS for 30 min. Cells were washed three times with 1×PBS and incubated with primary antibodies for 1 hr at 1:100 dilution. After the incubation, the slides were again washed three times in 1×PBS and were incubated with the FITC anti-mouse IgG and Rhodamine anti-rabbit IgG for 1 hr at 1:400 dilution. The cells were further washed and stained with DAPI (4′,6-diamidino-2′-phenylindole, dihydrochloride) (Thermo Scientific, USA) to stain the nucleus. Finally, the slides were washed and mounted in Pro Long Gold antifade mounting solution (Invitrogen, USA) and were viewed under a LSM 710 Meta confocal microscope (Zeiss) at 350 nm, 490 nm, and 540 nm excitation and 470 nm, 525 nm, and 625 nm emission for DAPI, FITC, and Rhodamine respectively. Six individual fields at 63× oil lens magnification were analyzed for the mean fluorescence intensity (MFI) in each channel.
Cells were harvested in homogenizing buffer containing 10 mM Tris-Cl (pH 7.4), 1 mM PMSF (phenylmethylsulfonyl fluoride), 1 mM EGTA, 1 mM EDTA, 50 mM NaF, and 20 μM leupeptin, and were lysed by sonication. The homogenate was centrifuged at 100,000×g for 15 min at 4° C. to obtain the cytosolic fraction (supernatant) and membrane (pellet). The pellet was resuspended in the homogenizing buffer by sonication. […] Protein concentration was measured using the Coomassie Plus (Bradford) Protein Assay kit (Pierce, USA). Following quantification, 20 μg of protein from each sample was subjected to SDS-PAGE analysis in a 4-20% gradient Tris-Glycine gel (Invitrogen, USA). […] The blot was imaged in an ImageQuant RT-ECL (GE Life Sciences, Piscataway, N.J.) and densitometric quantification was performed using IMAL software (Blanchette Rockefeller Neurosciences Institute, Morgantown, W. Va.). […]

[3] = tested on: cultured primary rat hippocampal neurons; assay: Neuroprotection against ASPD induced toxicity, MTT assay, primary neurons; type: cell-based; conditions: added to the cells with DCPLA-ME, 50 nM ASPD
Method: Viability of cells was measured by MTT assay. MTT (i.e., 3-(4,5-dimethylthiazol-2-yl)-2,5-diphenyltetrazolium bromide) is a tetrazolium salt that is cleaved to formazan by the succinate dehydrogenase, which is only active in viable cells. After solubilization of the formazan, the amount of dye can be quantified with a microplate reader at 570 nm along with a reference of 630 nm. For the MTT assay, 5×10^4 primary rat hippocampal neurons from 18-day-old embryonic Sprague-Dawley rat brains or SH-SY5Y cells were plated on each well of 24-well plates coated with poly-D-lysine. After treatment, the cells were washed with 1× PBS and were incubated with 200 μl of 1 mg/ml MTT solution (Sigma, USA) at 37° C. for 2 hr. Then the MTT-solution was removed and the cells were lysed with 200 μl isopropanol containing 0.04 M HCl and […] for 10 min. Finally, the reading was taken at 570 nm and 630 nm. All the samples were done in triplicate and the data were represented as the percentage of control.
Bryostatin 1, DCPLA, and DCPLA-ME were tested against ASPD-induced cytotoxicity to determine their neuroprotective efficacy.

CCCCC/C=C\C/C=C\CCCCCCCC(=O)O[C@H]1CC[C@@]2(C)C(=CC[C@H]3[C@@H]4CC[C@H]([C@H](C)CCCC(C)C)[C@@]4(C)CC[C@@H]32)C1 [Cholesteryl linoleate, cholesteryl linoleate, reference compound]
PKC-ε activation (PKC-ε [1]; FIG. 4): little or no activation | PKC-α activation (PKC-α; FIG. 4): 20%

CCCCCC1CC1CC1CC1CCCCCCCC(=O)OC1CC[C@@]2(C)C(=CC[C@H]3[C@H]4CC[C@H]([C@H](C)CCCC(C)C)[C@@]4(C)CC[C@H]32)C1 (some centres unmarked) [DCPLA-cholesteryl ester, DCPLA cholesteryl ester]
affinity for PKC-ε and PKC-δ (PKC-ε [1]): extremely high affinity | form of activity vs. concentration response (PKC-ε [1]): biphasic manner | Emax (PKC-ε [1]): 122% | Specificity ε/α (PKC-ε [1]): 0.94 | concentration of maximal activation (PKC-ε [1]): 0.01 nM | potency relative to Bryostatin 1 (PKC-ε [1]; from concentration of maximal activity): 18 × | form of activity vs. concentration response (PKC-ε [1]; listed as cholesteryl ester): bimodal activation | EC50 (PKC-ε [1]): 0.005 nM | PKC-ε activation at its peak (PKC-ε [1]): up to 130 % of control | effect on PKC-α (PKC-α): inhibited at all concentrations

CCCCCC1CC1CC1CC1CCCCCCCC(=O)OC(C)C (centres unmarked) [DCPLA-isopropyl ester]
Emax (PKC-ε [1]): 140% | Specificity ε/α (PKC-ε [1]): 1.4 | concentration of maximal activation (PKC-ε [1]): 10 nM | EC50 (PKC-ε [1]): 0.1 nM | PKC-ε activation at its peak (PKC-ε [1]): up to 40 % of control | effect on PKC-δ (PKC-δ): only slightly activated

EAVSLKPT
effect on DCPLA-ME protection of PKC-ε protein level (PKC-ε [2]): completely blocked | effect on DCPLA-ME neuroprotection [3]: blocked DCPLA-ME's protective effect
